In patent publication US7439027B2, “Method for modulating process mediated by farnesoid activated receptors” (The Salk Institute for Biological Studies, priority 1995, dated 2008):

Experiments:
[1] = target: T1, FAR-RXRα complex (rat FAR and human RXRα) (Rattus norvegicus, UniProt Q62735, D356M/DEL339-355/E357R/INS337LPDTQTCWKKEFERAAS); assay: hsp27-EcRE×5 MTV-luciferase reporter cotransfection in CV-1 cells expressing FAR and RXRα; format: cell-based; settings: for activation of FAR-RXRα complex, hsp27 EcRE reporter: FIG. 5C
T1 construct: expressed in transfected cells; host or cells: CV-1 cells, CMV-driven expression vectors
T1 sequence (Q62735 1-469): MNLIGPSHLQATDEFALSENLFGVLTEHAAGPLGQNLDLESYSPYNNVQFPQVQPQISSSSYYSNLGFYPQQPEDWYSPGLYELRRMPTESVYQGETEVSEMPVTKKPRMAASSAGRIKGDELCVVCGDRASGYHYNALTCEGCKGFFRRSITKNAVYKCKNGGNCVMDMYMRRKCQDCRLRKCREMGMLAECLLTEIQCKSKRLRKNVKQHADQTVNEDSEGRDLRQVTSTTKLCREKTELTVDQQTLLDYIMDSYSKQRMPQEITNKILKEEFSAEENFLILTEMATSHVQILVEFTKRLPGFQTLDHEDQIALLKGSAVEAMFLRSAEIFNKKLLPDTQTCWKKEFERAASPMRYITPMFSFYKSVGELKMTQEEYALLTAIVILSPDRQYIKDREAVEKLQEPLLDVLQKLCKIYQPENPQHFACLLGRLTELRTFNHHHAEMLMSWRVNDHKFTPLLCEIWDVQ
T1 sequence (P19793 1-462 partner): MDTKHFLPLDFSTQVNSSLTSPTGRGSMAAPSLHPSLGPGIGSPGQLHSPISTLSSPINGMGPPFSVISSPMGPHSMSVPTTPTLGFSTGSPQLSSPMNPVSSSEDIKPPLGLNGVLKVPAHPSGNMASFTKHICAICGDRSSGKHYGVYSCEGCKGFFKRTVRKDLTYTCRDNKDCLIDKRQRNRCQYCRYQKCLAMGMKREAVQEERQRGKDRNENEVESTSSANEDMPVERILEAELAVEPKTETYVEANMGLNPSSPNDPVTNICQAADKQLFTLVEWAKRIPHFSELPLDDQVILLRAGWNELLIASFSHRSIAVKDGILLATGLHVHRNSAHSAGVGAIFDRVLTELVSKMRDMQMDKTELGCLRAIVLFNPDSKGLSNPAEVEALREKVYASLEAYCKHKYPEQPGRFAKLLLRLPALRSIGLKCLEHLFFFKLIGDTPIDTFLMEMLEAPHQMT
Description: Thus, CV-1 cells were grown in DMEM supplemented with 10% AG1-X8 resin-charcoal stripped calf bovine serum, 50 U/ml penicillin G and 50 μg/ml streptomycin sulfate (DMEM-CBS) at 37° C. in 5% CO2. One day prior to transfection, cells were plated to 50-80% confluence using phenol-red free DMEM with 10% resin charcoal stripped fetal bovine serum (DMEM-FBS). Cells were transfected (with reporter construct (300 ng/10^5 cells), cytomegalovirus driven receptor (100 ng/10^5 cells) and β-galactosidase expression vectors (500 ng/10^5 cells) as indicated in FIG. 4) by lipofection using N-{2-(2,3)-dioleoyloxy)propyl-N,N,N-trimethyl ammonium methyl sulfate} according to the manufacturer's instructions (DOTAP, Boehringer Mannheim). […] Cells were harvested and assayed for luciferase and β-galactosidase activity. […] Data points were normalized for differences in transfection efficiency using β-galactosidase, and plotted as relative activity where the untreated reporter is defined to have an activity of 1 unit.
Based on the identification of an EcRE as a DNA target, a reporter plasmid was constructed containing 5 copies of the hsp27 response element linked to a truncated mouse mammary tumor virus promoter (Yao et al., Nature 366:476-479 (1993)). This reporter was cotransfected into CV-1 cells alone, or with expression vectors for FAR and/or RXRα. Cotransfected cells were treated with a variety of potential ligands and monitored for changes in luciferase activity.
Thus, with reference to FIG. 5A, CV-1 cells were transiently transfected with hsp27-EcRE×5 MTV-luciferase alone (−) or with expression vectors for rat FAR and/or human RXRα. Reporter activity was assayed after treating cells with or without 50 μM JH III.
CV-1 cells were transiently transfected as described above with reference to FIG. 5A, but treated with or without 50 μM JH III, 100 nM LG69 and JH III+LG69.
Thus, CV-1 cells were transiently transfected with expression vectors for rat FR and human RXRα, as described above in Example 3. […] Data is plotted in FIG. 6A as fold activation relative to untreated cells.

[2] = target: T2, rat FAR (Rattus norvegicus, UniProt Q62735, D356M/DEL339-355/E357R/INS337LPDTQTCWKKEFERAAS); assay: hsp27-EcRE×5 MTV-luciferase reporter in CV-1 cells expressing FAR alone; format: cell-based; settings: 50 μM JH III; FIG. 5A
T2 construct: expressed in transfected cells; host or cells: CV-1 cells, CMV-driven expression vector
T2 sequence (Q62735 1-469 INS337LPDTQTCWKKEFERAAS/DEL339-355/D356M/E357R): T1 sequence (Q62735 1-469)
Description: Thus, CV-1 cells were grown in DMEM supplemented with 10% AG1-X8 resin-charcoal stripped calf bovine serum, 50 U/ml penicillin G and 50 μg/ml streptomycin sulfate (DMEM-CBS) at 37° C. in 5% CO2. One day prior to transfection, cells were plated to 50-80% confluence using phenol-red free DMEM with 10% resin charcoal stripped fetal bovine serum (DMEM-FBS). Cells were transfected (with reporter construct (300 ng/10^5 cells), cytomegalovirus driven receptor (100 ng/10^5 cells) and β-galactosidase expression vectors (500 ng/10^5 cells) as indicated in FIG. 4) by lipofection using N-{2-(2,3)-dioleoyloxy)propyl-N,N,N-trimethyl ammonium methyl sulfate} according to the manufacturer's instructions (DOTAP, Boehringer Mannheim). […] Cells were harvested and assayed for luciferase and β-galactosidase activity. All points were performed in triplicate and varied by less than 10%. Experiments were repeated three or more time with similar results. […]
Based on the identification of an EcRE as a DNA target, a reporter plasmid was constructed containing 5 copies of the hsp27 response element linked to a truncated mouse mammary tumor virus promoter (Yao et al., Nature 366:476-479 (1993)). […] Cotransfected cells were treated with a variety of potential ligands and monitored for changes in luciferase activity. […]

[3] = target: T3, human RXRα (Homo sapiens, UniProt P19793); assay: luciferase reporter in CV-1 cells expressing RXRα alone (hsp27-EcRE×5 MTV; CRBPII-TK); format: cell-based; settings: 50 μM JH III; FIGS. 5A and 5B
T3 construct: expressed in transfected cells; host or cells: CV-1 cells, CMV-driven expression vector
T3 sequence (P19793 1-462): T1 sequence (P19793 1-462 partner)
Description: (§1) Thus, CV-1 cells were grown in DMEM supplemented with 10% AG1-X8 resin-charcoal stripped calf bovine serum, 50 U/ml penicillin G and 50 μg/ml streptomycin sulfate (DMEM-CBS) at 37° C. in 5% CO2. One day prior to transfection, cells were plated to 50-80% confluence using phenol-red free DMEM with 10% resin charcoal stripped fetal bovine serum (DMEM-FBS). Cells were transfected (with reporter construct (300 ng/10^5 cells), cytomegalovirus driven receptor (100 ng/10^5 cells) and β-galactosidase expression vectors (500 ng/10^5 cells) as indicated in FIG. 4) by lipofection using N-{2-(2,3)-dioleoyloxy)propyl-N,N,N-trimethyl ammonium methyl sulfate} according to the manufacturer's instructions (DOTAP, Boehringer Mannheim). […] Cells were harvested and assayed for luciferase and β-galactosidase activity. All points were performed in triplicate and varied by less than 10%. Experiments were repeated three or more time with similar results. Data points were normalized for differences in transfection efficiency using β-galactosidase, and plotted as relative activity where the untreated reporter is defined to have an activity of 1 unit.
Thus, with reference to FIG. 5A, CV-1 cells were transiently transfected with hsp27-EcRE×5 MTV-luciferase alone (−) or with expression vectors for rat FAR and/or human RXRα. Reporter activity was assayed after treating cells with or without 50 μM JH III. […]

[4] = tested on: Drosophila G-EcR+USP; assay: G-EcR+USP / hsp27-EcRE×5 MTV luciferase reporter; format: cell-based; settings: 50 μM JH III; FIG. 5B
Description: as §1, with “unit. […]” for “unit.”

[5] = target: T4, human T3Rβ (Homo sapiens, UniProt P10828); assay: T3Rβ / TREp×2-TK luciferase reporter; format: cell-based; settings: 50 μM JH III; FIG. 5B
T4 construct: expressed in transfected cells
T4 sequence (P10828 1-461): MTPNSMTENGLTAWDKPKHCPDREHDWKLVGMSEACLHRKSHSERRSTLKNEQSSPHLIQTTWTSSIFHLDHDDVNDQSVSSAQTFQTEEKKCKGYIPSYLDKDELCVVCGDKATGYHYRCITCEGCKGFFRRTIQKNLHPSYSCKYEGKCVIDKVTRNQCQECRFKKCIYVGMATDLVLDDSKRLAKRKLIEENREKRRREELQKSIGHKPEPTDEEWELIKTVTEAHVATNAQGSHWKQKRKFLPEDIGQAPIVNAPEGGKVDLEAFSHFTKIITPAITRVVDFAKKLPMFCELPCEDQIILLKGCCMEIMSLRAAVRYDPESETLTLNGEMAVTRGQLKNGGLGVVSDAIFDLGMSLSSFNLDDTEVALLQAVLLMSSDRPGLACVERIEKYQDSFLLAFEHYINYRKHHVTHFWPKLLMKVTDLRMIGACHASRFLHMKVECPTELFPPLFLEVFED
Description: as §1, with “unit. […]” for “unit.”

[6] = target: T5, human RARα (Homo sapiens, UniProt P10276); assay: RARα / DR5×2-TK luciferase reporter; format: cell-based; settings: 50 μM JH III; FIG. 5B
T5 construct: expressed in transfected cells
T5 sequence (P10276 1-462): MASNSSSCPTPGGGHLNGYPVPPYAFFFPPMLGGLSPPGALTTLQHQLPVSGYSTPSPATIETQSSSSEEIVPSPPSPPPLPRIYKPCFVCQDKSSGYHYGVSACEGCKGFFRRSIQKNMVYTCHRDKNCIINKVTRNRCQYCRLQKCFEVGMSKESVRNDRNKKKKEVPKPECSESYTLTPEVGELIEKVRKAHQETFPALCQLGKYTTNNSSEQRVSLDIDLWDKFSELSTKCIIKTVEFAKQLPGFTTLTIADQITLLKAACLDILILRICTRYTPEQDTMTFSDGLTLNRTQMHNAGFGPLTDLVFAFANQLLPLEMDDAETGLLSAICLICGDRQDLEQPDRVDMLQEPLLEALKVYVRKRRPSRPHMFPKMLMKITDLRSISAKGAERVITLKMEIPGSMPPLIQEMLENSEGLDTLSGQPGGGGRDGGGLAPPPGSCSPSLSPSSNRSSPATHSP
Description: as §1, with “unit. […]” for “unit.”

[7] = target: T1, FAR-RXRα complex (rat FAR and human RXRα); assay: hsp27-EcRE×5 MTV-luciferase reporter cotransfection in CV-1 cells expressing FAR and RXRα; format: cell-based; settings: JH III; parental MTV reporter without EcREs
[8] = tested on: ornithine decarboxylase; settings: 100 μM; bovine lymphocytes; cited from earlier work
[9] = tested on: HMG-CoA reductase; settings: by a mevalonate-derived non-sterol; cited from earlier work

C[C@H](CCC1OC1(C)C)[C@H]1CC[C@H]2[C@@H]3CC=C4C[C@@H](O)CC[C@]4(C)[C@H]3CC[C@]12C (some centres unmarked) [24,25-epoxycholesterol]
activation of FAR-RXRα (in words) ([1]; 50 μM, FIG. 6A): little or no activation

C[C@H](CCCC(C)(C)O)[C@H]1CC[C@H]2[C@@H]3CC=C4C[C@@H](O)CC[C@]4(C)[C@H]3CC[C@]12C [25-hydroxycholesterol]
activation of FAR-RXRα (in words) ([1]; 10 μM): little or no activation

COC(=O)/C=C(\C)CC/C=C(\C)CCC1OC1(C)C (stereo not drawn) [JH III, cis-10,11-epoxy-3,7,11-trimethyl-trans-trans-2,6-dodecadienoic acid methyl ester]
induction of luciferase activity ([1]; 50 μM JH III, CV-1 cells expressing both FAR and RXRα, FIG. 5A): 10 fold
activation of FAR-RXRα complex, hsp27 EcRE reporter ([1]; 50 μM JH III): 17 fold
activation of FAR alone [2]: fails to activate
activation of RXRα alone [3]: fails to activate
activation of ecdysone receptor (EcR+USP) [4]: failed to activate
activation of thyroid hormone receptor (T3R) [5]: failed to activate
activation of all-trans retinoic acid receptor (RAR) [6]: failed to activate
activation of FAR-RXR complexes using parental MTV reporter construct lacking the EcREs [7]: failed to activate
antagonism of induction of ornithine decarboxylase by phorbol esters and phytohemagglutinin [8]: can be antagonized

CC=C(c1ccc(C(=O)O)cc1)c1cc2c(cc1C)C(C)(C)CCC2(C)C [LG69, (4-{1-3,5,5,8,8-pentamethyl-5,6,7,8-tetrahydro-2-napthalenyl)-1-propenyl}benzoic acid]
activation of FAR-RXRα complex, hsp27 EcRE reporter ([1]; 100 nM LG69): 76 fold

CC(C)=CCCC(C)=CCCC(C)=CC=O [farnesal]
activation of FAR-RXRα (in words) ([1]; 50 μM, FIG. 6A): weaker activity

CC(C)=CCCC(C)=CCCC(C)=CC(=O)O [farnesoic acid]
activation of FAR-RXRα (in words) ([1]; 50 μM, FIG. 6A): little or no activation

CC(C)=CCC/C(C)=C/CO [geraniol]
activation of FAR-RXRα (in words) ([1]; 50 μM, FIG. 6A): little or no activation

CC(C)=CCC/C(C)=C/CC/C(C)=C/CC/C(C)=C/CO [geranylgeraniol]
activation of FAR-RXRα (in words) ([1]; 50 μM, FIG. 6A): weaker activity

CC(C)=CCC[C@@H](C)[C@H]1CC[C@@]2(C)C3=C(CC[C@]12C)[C@@]1(C)CC[C@H](O)C(C)(C)[C@@H]1CC3 [lanosterol]
activation of FAR-RXRα (in words) ([1]; 50 μM, FIG. 6A): little or no activation

CC(O)(CCO)CC(=O)O (centres unmarked) [mevalonate]
activation of FAR-RXRα (in words) ([1]; 50 μM, FIG. 6A): little or no activation
activation of FAR-RXRα (in words) ([1]; 200 μM, cells cotransfected with a mevalonate transporter protein): weak activity
concentration added to cells at which down-regulation of HMG-CoA reductase activity occurs [9]: > 100 µM

CC(=O)[C@H]1CC[C@H]2[C@@H]3CC=C4C[C@@H](O)CC[C@]4(C)[C@H]3CC[C@]12C [pregnenolone]
activation of FAR-RXRα (in words) ([1]; 50 μM, FIG. 6A): little or no activation

CC(C)=CCC/C(C)=C/CC/C(C)=C/CC/C=C(\C)CC/C=C(\C)CCC1OC1(C)C (centres unmarked) [squalene epoxide]
activation of FAR-RXRα (in words) ([1]; 50 μM, FIG. 6A): little or no activation

CC(C)=CCC/C(C)=C/CC/C(C)=C/CC/C=C(\C)CC/C=C(\C)CCC=C(C)C [squalene]
activation of FAR-RXRα (in words) ([1]; 50 μM, FIG. 6A): little or no activation
